Laboratory results reported in patent US10703721B2, “Caffeic acid derivatives and uses thereof” (Board of Regents, The University of Texas System, priority 2017, dated 2020).

Key:
Test in all cases: Cytotoxicity assay (MTS, 72 hours)
[1] = system: MDA-PATC-53; format: cell-based
Procedure: (§1) Tumor cell lines were maintained in DMEM with 10% fetal bovine serum (FBS), 100 microg/ml streptomycin, and 100 IU/ml penicillin in 5% CO2 at 37° C.
(§2) For the cytotoxicity assays, 1,500 tumor cells were plated into 96-well flat-bottom tissue culture plates in complete medium (see Tables 2 and 3). After 20 hours fresh media containing different concentrations of compounds disclosed herein added. Cell number was counted after 72 hours by using MTS assay (Promega CellTiter AQ Non-Radioactive Cell Proliferation Assay kit, Madison, Wis., USA) by measuring absorbance at 490 nm with a 96-well plate reader. Data are presented as IC50 values derived from relative inhibition of proliferation plus SD of eight measurements. The number of cells in the presence of DMSO was taken as 100%.

[2] = system: Colo357-FG; format: cell-based, human
Procedure: as §1
Colo357-FG and Colo357-L3: Colo357-FG, a fast-growing variant produced regional lymph node metastasis in 58% of nude mice after subcutaneous implantation and growth. It also produced hepatic metastasis in 64% and pulmonary metastasis in 43% of nude mice after intrasplenic implantation of tumor cells. See Vezeridis et al. (1990).
as §2

[3] = system: HD2; format: cell-based; details: Table 3, Myeloma
Procedure: as §2, with “After” for “For the cytotoxicity assays, 1,500 tumor cells were plated into 96-well flat-bottom tissue culture plates in complete medium (see Tables 2 and 3). After”

[4] = system: D423 enol; format: cell-based; details: Table 3, GBM
Procedure: as §1, §2

[5] = system: WM35; format: cell-based
Procedure: as §1, §2

[6] = system: SK-MEL-28; format: cell-based
Procedure: as §1, §2

[7] = system: BT483; format: cell-based
Procedure: as §1, §2

[8] = system: Ovcar-5; format: cell-based
Procedure: as §1, §2

[9] = system: MDA-PATC-108; format: cell-based; details: Table 3, Panc
Procedure: as §1, §2

[10] = system: U87MG; format: cell-based; details: Table 3, GBM
Procedure: as §1, §2

[11] = system: MIA-PaCa-2; format: cell-based
Procedure: as §1, §2

[12] = system: PC3; format: cell-based
Procedure: as §1, §2

[13] = system: LNZ-428; format: cell-based; details: Table 3, GBM
Procedure: as §1, §2

[14] = system: 231-MB; format: cell-based; details: Table 3, Breast
Procedure: as §1, §2

[15] = system: 4T1; format: cell-based
Procedure: as §1, §2

[16] = system: MDA-PATC-153; format: cell-based; details: Table 3, Panc
Procedure: as §1, §2

[17] = system: HuT78; format: cell-based
Procedure: as §1, §2

[18] = system: D423; format: cell-based; details: Table 3, GBM
Procedure: as §1, §2

[19] = system: A375; format: cell-based
Procedure: as §1, §2

[20] = system: LN319; format: cell-based; details: LN-319, Table 3, GBM
Procedure: as §1, §2

[21] = system: SU.86.86; format: cell-based
Procedure: as §1, §2

[22] = system: MDA-PATC-148; format: cell-based; details: Table 3, Panc
Procedure: as §1, §2

[23] = system: HH; format: cell-based; details: Table 3, CTCL
Procedure: as §1, §2

[24] = system: BT-58; format: cell-based; details: Table 3, Ependymoma
Procedure: as §1, §2

[25] = system: 231; format: cell-based; details: Table 3, Breast
Procedure: as §1, §2

[26] = system: WM793; format: cell-based, human
Procedure: as §1
WM793 human melanoma tumor cell lines were used from different stages of progression and their biological and molecular analyses. See Satyamoorthy et al. (1997).
as §2

[27] = MDA-PATC53, 72 h, Table 2, MDA-PATC-53
[28] = Homo sapiens, COLO 357/FG, 72 h, Table 2, Colo357-FG

What does the source list for `CCC(CC)(NC(=O)/C(C#N)=C/c1cccc(Cl)n1)c1ccc(OCCOCCN2CCOCC2)cc1` [WP 1723, (E)-3-(6-chloropyridin-2-yl)-2-cyano-N-(3-(4-(2-(2-morpholinoethoxy)ethoxy)phenyl)pentan-3-yl)acrylamide]?
IC50 [1, 27]: 1400 nM; IC50 [2, 28]: 1200 nM

`CCC(CC)(NC(=O)/C(C#N)=C/c1cccc(Cl)n1)c1ccc(OCCOCCN2CCN(C)CC2)cc1` [WP 1731, (E)-3-(6-chloropyridin-2-yl)-2-cyano-N-(3-(4-(2-(2-(4-methylpiperazin-1-yl)ethoxy)ethoxy)phenyl)pentan-3-yl)acrylamide] was tested. Which IC50 [1, 27] did it give?
The IC50 was 1800 nM.

What about the IC50 [2, 28] of the same compound?
The IC50 was 1500 nM.

What does the source list for `CCCC(CCC)(NC(=O)/C(C#N)=C/c1cccc(Cl)n1)c1ccc(OCCN(CC)CC)cc1` [WP 1734, (E)-3-(6-chloropyridin-2-yl)-2-cyano-N-(4-(4-(2-(diethylamino)ethoxy)phenyl)heptan-4-yl)acrylamide]?
IC50 [1, 27]: 1600 nM; IC50 [2, 28]: 1500 nM

`CCC(CC)(NC(=O)/C(C#N)=C/c1ccccn1)c1ccc(OCCOCCN2CCOCC2)cc1` [WP 1724, (E)-2-cyano-N-(3-(4-(2-(2-morpholinoethoxy)ethoxy)phenyl)pentan-3-yl)-3-(pyridin-2-yl)acrylamide] was tested. Which IC50 [1, 27] did it give?
The IC50 was 3500 nM.

What about the IC50 [2, 28] of the same compound?
The IC50 was 2800 nM.

For `CCN(CC)CCOc1ccc(C(CC)(CC)NC(=O)/C(C#N)=C/c2cccc(Cl)n2)cc1` [WP 1722, (E)-3-(6-chloropyridin-2-yl)-2-cyano-N-(3-(4-(2-(diethylamino)ethoxy)phenyl)pentan-3-yl)acrylamide], which IC50 ([1]; Table 2, MDA-PATC-53) is on record?
The IC50 was 1100 nM.

And the IC50 ([2]; Table 2, Colo357-FG)?
Its IC50 is 1200 nM.

For `CCC(CC)(NC(=O)/C(C#N)=C/c1cccc(Cl)n1)c1ccc(OCCOCCN2CCN(C)CC2)cc1` [WP1732], which IC50 [3] is on record?
The IC50 was 3800 nM.

What about the IC50 ([1]; MDA-PATC53, 72 h, Table 3, Panc) of the same compound?
The IC50 was 1800 nM.

What about the IC50 [4] of the same compound?
Its IC50 is 2500 nM.

What about the IC50 ([5]; WM35, Table 3, Melanoma) of the same compound?
The IC50 was 2300 nM.

What about the IC50 ([6]; Homo sapiens, SK-MEL-28, Table 3, Melanoma) of the same compound?
Its IC50 is 1800 nM.

And the IC50 ([7]; Homo sapiens, BT-483, Table 3, Breast)?
The IC50 was 2300 nM.

What about the IC50 ([8]; Homo sapiens, OVCAR-5, Table 3, Ovarian) of the same compound?
The IC50 was 1700 nM.

What about the IC50 [9] of the same compound?
Its IC50 is 1600 nM.

And the IC50 ([10]; Homo sapiens, U-87 MG)?
Its IC50 is 1800 nM.

What about the IC50 ([11]; Homo sapiens, MIA PaCa-2, Table 3, Panc) of the same compound?
Its IC50 is 1600 nM.

What about the IC50 ([12]; Homo sapiens, PC-3, Table 3, Prostate) of the same compound?
Its IC50 is 1400 nM.

What about the IC50 [13] of the same compound?
The IC50 was 2300 nM.

What about the IC50 [14] of the same compound?
The IC50 was 1500 nM.

And the IC50 ([15]; Mus musculus, 4T1, Table 3, Breast)?
Its IC50 is 4500 nM.

What about the IC50 [16] of the same compound?
The IC50 was 2600 nM.

And the IC50 ([17]; Homo sapiens, HuT78, Table 3, CTCL)?
Its IC50 is 2900 nM.

What about the IC50 [18] of the same compound?
The IC50 was 1400 nM.

And the IC50 ([19]; Homo sapiens, A-375, Table 3, Melanoma)?
Its IC50 is 1100 nM.

What about the IC50 [20] of the same compound?
The IC50 was 2800 nM.

And the IC50 ([21]; Homo sapiens, SU.86.86, Table 3, Panc)?
The IC50 was 1500 nM.

What about the IC50 [22] of the same compound?
The IC50 was 1900 nM.

And the IC50 ([23]; Homo sapiens, HH)?
Its IC50 is 3200 nM.

What about the IC50 [24] of the same compound?
The IC50 was 1800 nM.

What about the IC50 [25] of the same compound?
Its IC50 is 2800 nM.

And the IC50 ([2]; Homo sapiens, COLO 357/FG, 72 h, Table 3, Panc)?
Its IC50 is 2600 nM.

What about the IC50 ([26]; Homo sapiens, WM793, Table 3, Melanoma) of the same compound?
The IC50 was 1800 nM.

With `CCN(CC)CCOc1ccc(C(CC)(CC)NC(=O)/C(C#N)=C/c2ccccn2)cc1` [WP 1727, (E)-2-cyano-N-(3-(4-(2-(diethylamino)ethoxy)phenyl)pentan-3-yl)-3-(pyridin-2-yl)acrylamide] as the compound, how does the IC50 [1, 27] read?
The IC50 was 3000 nM.

And the IC50 [2, 28]?
The IC50 was 2200 nM.

What does the source list for `CCCC(CCC)(NC(=O)/C(C#N)=C/c1cccc(Cl)n1)c1ccc(OCCN2CCOCC2)cc1` [WP 1733, (E)-3-(6-chloropyridin-2-yl)-2-cyano-N-(4-(4-(2-morpholinoethoxy)phenyl)heptan-4-yl)acrylamide]?
IC50 [1, 27]: 1100 nM; IC50 [2, 28]: 950 nM

`CCN(CC)CCOc1ccc(C(CC)(CC)NC(=O)/C(C#N)=C/c2cccc(Cl)n2)cc1` [WP 1794] was tested. Which IC50 [1, 27] did it give?
Its IC50 is 900 nM.

What about the IC50 [2, 28] of the same compound?
The IC50 was 600 nM.

`CCC(CC)(NC(=O)/C(C#N)=C/c1cccc(Cl)n1)c1ccc(OCCN2CCOCC2)cc1` [WP 1721, (E)-3-(6-chloropyridin-2-yl)-2-cyano-N-(3-(4-(2-morpholinoethoxy)phenyl)pentan-3-yl)acrylamide] was tested. Which IC50 [1, 27] did it give?
The IC50 was 1100 nM.

And the IC50 [2, 28]?
Its IC50 is 1100 nM.

`CCC(CC)(NC(=O)/C(C#N)=C/c1cccc(Cl)n1)c1ccc(OCCN2CCOCC2)cc1` [WP 1793] was tested. Which IC50 ([1]; Table 2, MDA-PATC-53) did it give?
The IC50 was 1000 nM.

And the IC50 ([2]; Table 2, Colo357-FG)?
The IC50 was 800 nM.

For `C[C@H](NC(=O)/C(C#N)=C/c1cccc(Br)n1)c1ccccc1` [WP1066, reference compound], which IC50 [3] is on record?
The IC50 was 1700 nM.

What about the IC50 ([1]; Table 2, MDA-PATC-53) of the same compound?
The IC50 was 2400 nM.

What about the IC50 ([1]; Table 3, Panc) of the same compound?
Its IC50 is 2400 nM.

And the IC50 ([5]; Table 3, Melanoma)?
Its IC50 is 1300 nM.

And the IC50 ([6]; Table 3, Melanoma)?
The IC50 was 2000 nM.

What about the IC50 ([7]; Table 3, Breast) of the same compound?
Its IC50 is 4200 nM.

And the IC50 ([8]; Table 3, Ovarian)?
Its IC50 is 1700 nM.

What about the IC50 [9] of the same compound?
The IC50 was 2400 nM.

What about the IC50 [10] of the same compound?
Its IC50 is 1700 nM.

What about the IC50 ([11]; Table 3, Panc) of the same compound?
Its IC50 is 1700 nM.

What about the IC50 ([12]; Table 3, Prostate) of the same compound?
Its IC50 is 2300 nM.

What about the IC50 [13] of the same compound?
Its IC50 is 1500 nM.

What about the IC50 [14] of the same compound?
The IC50 was 1200 nM.

What about the IC50 ([15]; Table 3, Breast) of the same compound?
The IC50 was 4400 nM.

And the IC50 ([17]; Table 3, CTCL)?
Its IC50 is 1900 nM.

And the IC50 ([19]; Table 3, Melanoma)?
Its IC50 is 1500 nM.

What about the IC50 ([21]; Table 3, Panc) of the same compound?
The IC50 was 2500 nM.

What about the IC50 [23] of the same compound?
Its IC50 is 2300 nM.

What about the IC50 [24] of the same compound?
The IC50 was 1800 nM.

And the IC50 [25]?
Its IC50 is 4800 nM.

And the IC50 ([2]; Table 2, Colo357-FG)?
The IC50 was 2100 nM.

What about the IC50 ([2]; Table 3, Panc) of the same compound?
Its IC50 is 2000 nM.

What about the IC50 ([26]; Table 3, Melanoma) of the same compound?
The IC50 was 2100 nM.
